Test results: publication PMC6856185, “Piezo1 channel activation mimics high glucose as a stimulator of insulin release” (Scientific Reports, 2019)
pEC50: −log10 of the molar value.

Target: T1, Piezo1 (Rattus norvegicus, UniProt Q0KL00)
T1 construct: native channel in INS-1 832/13 and BRIN-BD11 rat β-cell lines
Assay: fura-2 Ca2+ influx and whole-cell patch-clamp in INS-1 cells; Piezo1 siRNA reduced Yoda1-induced insulin release
Type: cell-based

T1 sequence (Q0KL00 whole entry): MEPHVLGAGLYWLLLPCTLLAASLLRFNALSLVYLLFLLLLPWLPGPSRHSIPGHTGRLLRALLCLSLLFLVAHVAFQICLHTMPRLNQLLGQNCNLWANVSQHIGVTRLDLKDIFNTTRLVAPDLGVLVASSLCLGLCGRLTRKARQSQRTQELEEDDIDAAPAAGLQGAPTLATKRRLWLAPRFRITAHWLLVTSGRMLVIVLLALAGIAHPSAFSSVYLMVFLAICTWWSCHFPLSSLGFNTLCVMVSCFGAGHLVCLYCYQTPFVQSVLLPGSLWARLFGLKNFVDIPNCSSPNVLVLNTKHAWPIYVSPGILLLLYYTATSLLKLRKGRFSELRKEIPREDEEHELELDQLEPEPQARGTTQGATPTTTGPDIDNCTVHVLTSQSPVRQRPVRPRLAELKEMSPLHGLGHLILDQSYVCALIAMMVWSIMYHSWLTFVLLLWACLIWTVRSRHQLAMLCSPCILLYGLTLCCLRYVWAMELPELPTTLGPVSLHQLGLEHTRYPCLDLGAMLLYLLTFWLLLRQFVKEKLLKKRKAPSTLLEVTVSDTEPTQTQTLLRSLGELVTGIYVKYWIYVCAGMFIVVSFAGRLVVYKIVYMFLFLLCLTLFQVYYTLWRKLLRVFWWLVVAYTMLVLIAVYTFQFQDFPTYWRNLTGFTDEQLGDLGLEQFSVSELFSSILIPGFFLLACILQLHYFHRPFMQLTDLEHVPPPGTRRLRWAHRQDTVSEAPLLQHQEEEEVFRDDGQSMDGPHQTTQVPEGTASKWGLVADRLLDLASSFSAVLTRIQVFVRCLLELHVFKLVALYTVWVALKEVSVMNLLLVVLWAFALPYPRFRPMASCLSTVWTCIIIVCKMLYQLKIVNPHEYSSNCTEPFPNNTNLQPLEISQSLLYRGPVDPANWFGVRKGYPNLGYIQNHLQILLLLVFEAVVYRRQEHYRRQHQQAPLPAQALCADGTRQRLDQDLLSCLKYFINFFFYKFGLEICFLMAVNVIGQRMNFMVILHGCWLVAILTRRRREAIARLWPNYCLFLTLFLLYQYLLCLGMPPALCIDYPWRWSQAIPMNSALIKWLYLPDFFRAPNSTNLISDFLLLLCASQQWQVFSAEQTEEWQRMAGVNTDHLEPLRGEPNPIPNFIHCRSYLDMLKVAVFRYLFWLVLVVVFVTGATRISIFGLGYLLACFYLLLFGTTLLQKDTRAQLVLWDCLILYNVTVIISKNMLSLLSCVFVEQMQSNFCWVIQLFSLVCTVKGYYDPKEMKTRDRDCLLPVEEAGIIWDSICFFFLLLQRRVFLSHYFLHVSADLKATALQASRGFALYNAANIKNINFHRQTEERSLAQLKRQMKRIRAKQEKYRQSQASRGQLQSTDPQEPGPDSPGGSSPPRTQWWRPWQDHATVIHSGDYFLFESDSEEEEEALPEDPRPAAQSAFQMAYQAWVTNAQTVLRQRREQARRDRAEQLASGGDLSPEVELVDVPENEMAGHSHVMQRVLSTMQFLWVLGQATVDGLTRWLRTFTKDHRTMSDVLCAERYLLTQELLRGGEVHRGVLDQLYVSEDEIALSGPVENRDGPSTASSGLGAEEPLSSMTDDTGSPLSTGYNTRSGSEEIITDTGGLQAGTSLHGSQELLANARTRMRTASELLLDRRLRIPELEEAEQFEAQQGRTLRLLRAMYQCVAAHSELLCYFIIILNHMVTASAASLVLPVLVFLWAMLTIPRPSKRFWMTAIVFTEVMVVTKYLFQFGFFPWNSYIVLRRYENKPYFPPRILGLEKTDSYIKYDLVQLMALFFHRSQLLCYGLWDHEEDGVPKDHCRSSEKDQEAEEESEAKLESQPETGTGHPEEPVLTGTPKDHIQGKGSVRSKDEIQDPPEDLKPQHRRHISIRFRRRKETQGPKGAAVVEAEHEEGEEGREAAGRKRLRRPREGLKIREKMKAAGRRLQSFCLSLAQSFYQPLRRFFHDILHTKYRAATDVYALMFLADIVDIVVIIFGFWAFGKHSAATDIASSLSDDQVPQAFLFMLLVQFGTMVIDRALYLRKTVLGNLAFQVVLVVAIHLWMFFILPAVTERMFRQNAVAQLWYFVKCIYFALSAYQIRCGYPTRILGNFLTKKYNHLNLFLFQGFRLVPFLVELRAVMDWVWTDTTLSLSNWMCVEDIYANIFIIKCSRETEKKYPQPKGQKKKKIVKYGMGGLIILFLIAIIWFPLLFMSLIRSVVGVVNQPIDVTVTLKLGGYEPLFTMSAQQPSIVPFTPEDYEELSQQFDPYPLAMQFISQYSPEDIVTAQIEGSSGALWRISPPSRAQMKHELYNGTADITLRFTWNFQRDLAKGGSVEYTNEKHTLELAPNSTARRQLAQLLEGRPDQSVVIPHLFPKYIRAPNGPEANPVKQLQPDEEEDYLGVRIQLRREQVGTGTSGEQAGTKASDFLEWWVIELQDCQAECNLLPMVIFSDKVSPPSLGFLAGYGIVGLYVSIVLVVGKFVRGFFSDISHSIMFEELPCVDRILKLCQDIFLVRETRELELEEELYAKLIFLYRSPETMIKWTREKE

In the case of `Clc1cccc(Cl)c1CSc1nnc(-c2cnccn2)s1` [Yoda1], the pEC50 was about 5.40.
